According to patent US20200407398A1, “Short Proline-Rich Lipopeptide Potentiates Minocycline and Rifampicin Against Multidrug-and Extensively Drug-Resistant Pseudomonas Aeruginosa” (priority 2018, published 2020):
Peptide text beside a SMILES is read from it. * marks the point of attachment. Lauroyl = CCCCCCCCCCCC(=O)*

Columns and labels:
Assay type in all cases: cell-based
[1] = system: E. coli ATCC 25922
Method in brief: (§1)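 CLSI microbroth dilution; MHB; inoculum 5×10^5 CFU/mL from 0.5 McFarland suspension diluted 1:50; 2-fold compound series; 37° C., 18 h; MIC = lowest concentration without visible growth, checked at 590 nm.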

[2] = system: E. faecalis ATCC 29212
Method in brief: as §1

[3] = system: E. faecium ATCC 27270
Method in brief: as §1

[4] = system: K. pneumoniae ATCC 13883
Method in brief: as §1

[5] = system: P. aeruginosa CANWARD-2011 96846 (gentamicin-, tobramycin-resistant)
Method in brief: as §1

[6] = system: P. aeruginosa wild-type PAO1
Method in brief: as §1

[7] = system: pig erythrocytes
Method in brief: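 Washed pig erythrocytes in PBS were mixed with 2-fold serial dilutions of peptide and incubated for 1 h at 37° C. Released hemoglobin in the supernatant was read at 570 nm, with PBS and 0.1% Triton X-100 as controls. MHC was the minimum concentration giving 5% hemolysis.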

CCCCCCCCCCCC(=O)N1CCC[C@H]1C(=O)N[C@@H](CCCNC(=N)N)C(=O)N1CCC[C@H]1C(=O)N[C@@H](CCCNC(=N)N)C(=O)N1CCC[C@H]1C(=O)N[C@@H](CCCNC(=N)N)C(=O)N1CCC[C@H]1C(N)=O [Compound C12-PRP, CH3(CH2)10CO-PRPRPRP-NH2] (Lauroyl-PRPRPRP-NH2)
MIC [1]: >128 µg/mL
MIC [2]: >128 µg/mL
MIC [3]: 128 µg/mL
MIC [4]: >128 µg/mL
MIC [5]: >128 µg/mL
MIC [6]: 128 µg/mL
MHC (minimum concentration that resulted in 5% red blood cell hemolysis) [7]: > 512 µg/mL
hemolysis ([7]; red cells of porcine, 512 μg/mL): 4.6±0.2%
